# Reference: publication PMC10938783, “A novel pan-PI3K inhibitor KTC1101 synergizes with anti-PD-1 therapy by targeting tumor suppression and immune activation” (Molecular Cancer, 2024)
# Tested on: JFCR39 panel of 39 human tumor cell lines
# Assay: JFCR39 panel growth inhibition, panel statistics
# Format: cell-based
# Conditions: Homo sapiens; JFCR39 panel; read-out: mean GI50 across all 39 cell lines
# Experimental: JFCR39 drug discovery system was used to measure the growth inhibitory activities and identify the target of KTC1101. The JFCR39 panel consists of 39 cell lines seeded in 96-well plates. After 48-h treatment with KTC1101, cell growth was measured using the sulforhodamine B assay. […] The deviation of log GI50 for each cell line from the average log GI50 across the JFCR39 panel was plotted as a fingerprint. MG-MID (mean of Log GI50 values) represents the average log GI50 for all 39 cell lines. The most sensitive and least sensitive cell lines were identified by calculating the difference in their log GI50 values (Range) and the difference between the most sensitive cell line and the average GI50 on the JFCR39 panel (Delta). The fingerprint of KTC1101 was compared with the fingerprints of reference compounds in the database. The Pearson correlation coefficient (r) was calculated (n = 39).
smiles,measurement,value
"COc1c(OCCCN2CCOCC2)ccc2c1N=C(NC(=O)c1cnc(N)nc1)N1CCN=C21 [Copanlisib, reference compound]",GI50,134 nM
